From ChEMBL document CHEMBL5346910, “N-sulfonyl peptide-hybrids as a new class of dengue virus protease inhibitors” (Eur J Med Chem, 2023) come the findings set out here.

Data set [1] concerns the target T1, Genome polyprotein (dengue virus type 2, UniProt P29990). Put plainly: Inhibition of DENV-2 NS2B-NS3 protease by biochemical enzymatic assay.
In data set [2] the target is Prothrombin (Homo sapiens) (UniProt P00734). Put plainly: Inhibition of Thrombin (unknown origin) at 25 uM by biochemical assay relative to control.
Data set [3] can be described thus: Metabolic stability in rat liver microsomes assessed as parent compound remaining measured for 120 mins by UV-based HPLC analysis. It is filed as ADME, Microsome. Conditions: read-out: Stability.
Data set [4] deals with Genome polyprotein (West Nile virus) (UniProt P06935). Put plainly: Inhibition of West Nile virus NS2B-NS3 protease at 50 uM by biochemical enzymatic assay relative to control.
In data set [5] the target is T2, Trypsin (Homo sapiens, UniProt P07477+P07478+P35030). Put plainly: Stability of the compound assessed as trypsin (unknown origin) mediated compound degradation incubated for 60 mins by UV-based HPLC analysis. The class given is ADME, protein assay. Conditions: 1 h.
Data set [6] concerns the target T2, Trypsin. As to the kind of experiment: Inhibition of trypsin (unknown origin) at 50 uM by biochemical assay relative to control. The class given is protein assay.
Data set [7] can be described thus: Cytotoxicity against human HeLa cells by CellTiter-Blue assay. It is filed as toxicity, cell-based.
Data set [8] is described as follows: Stability of the compound assessed as alpha-chymotrypsin (unknown origin) mediated compound degradation incubated for 60 mins by UV-based HPLC analysis. It is filed as ADME. Conditions: human, 1 h.
Data set [9] has as its target Genome polyprotein (dengue virus type 2) (UniProt P29990). As to the kind of experiment: Inhibition of DENV-2 NS2B-NS3 protease at 50 uM by biochemical enzymatic assay relative to control.
Data set [10] has as its target T1, Genome polyprotein. As to the kind of experiment: Competitive inhibition of DENV-2 NS2B-NS3 protease assessed as inhibition constant by Cheng-Prusoff plot analysis.
In data set [11] the target is T3, Genome polyprotein (West Nile virus, UniProt P06935). As to the kind of experiment: Inhibition of West Nile virus NS2B-NS3 protease by biochemical enzymatic assay.
Data set [12] has as its target T3, Genome polyprotein. As to the kind of experiment: Inhibition of West Nile virus NS2B-NS3 protease assessed as inhibition constant.

T3 sequence (P06935 1371-1501 limits assumed): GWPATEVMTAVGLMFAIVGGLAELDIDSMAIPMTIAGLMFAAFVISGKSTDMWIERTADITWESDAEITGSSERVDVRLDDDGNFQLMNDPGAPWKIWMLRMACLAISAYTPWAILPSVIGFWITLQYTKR
T3 sequence (P06935 1502-2120 limits assumed): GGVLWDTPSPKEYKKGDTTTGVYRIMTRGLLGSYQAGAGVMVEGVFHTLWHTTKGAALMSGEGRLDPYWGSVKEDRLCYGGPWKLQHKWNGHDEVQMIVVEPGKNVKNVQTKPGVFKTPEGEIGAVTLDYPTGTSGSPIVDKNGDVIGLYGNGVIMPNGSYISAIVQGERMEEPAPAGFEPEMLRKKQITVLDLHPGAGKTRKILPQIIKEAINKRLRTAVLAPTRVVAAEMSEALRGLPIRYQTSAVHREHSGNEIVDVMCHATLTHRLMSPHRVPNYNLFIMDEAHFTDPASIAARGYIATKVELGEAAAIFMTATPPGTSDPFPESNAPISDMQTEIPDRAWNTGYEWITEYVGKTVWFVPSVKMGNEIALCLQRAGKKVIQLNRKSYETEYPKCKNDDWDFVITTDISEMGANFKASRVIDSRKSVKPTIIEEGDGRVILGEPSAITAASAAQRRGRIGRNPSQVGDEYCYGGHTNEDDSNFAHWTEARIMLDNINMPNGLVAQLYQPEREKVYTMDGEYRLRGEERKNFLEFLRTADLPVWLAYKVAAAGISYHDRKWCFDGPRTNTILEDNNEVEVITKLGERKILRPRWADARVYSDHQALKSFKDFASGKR
Chain of Genome polyprotein (West Nile virus) (P06935 whole entry): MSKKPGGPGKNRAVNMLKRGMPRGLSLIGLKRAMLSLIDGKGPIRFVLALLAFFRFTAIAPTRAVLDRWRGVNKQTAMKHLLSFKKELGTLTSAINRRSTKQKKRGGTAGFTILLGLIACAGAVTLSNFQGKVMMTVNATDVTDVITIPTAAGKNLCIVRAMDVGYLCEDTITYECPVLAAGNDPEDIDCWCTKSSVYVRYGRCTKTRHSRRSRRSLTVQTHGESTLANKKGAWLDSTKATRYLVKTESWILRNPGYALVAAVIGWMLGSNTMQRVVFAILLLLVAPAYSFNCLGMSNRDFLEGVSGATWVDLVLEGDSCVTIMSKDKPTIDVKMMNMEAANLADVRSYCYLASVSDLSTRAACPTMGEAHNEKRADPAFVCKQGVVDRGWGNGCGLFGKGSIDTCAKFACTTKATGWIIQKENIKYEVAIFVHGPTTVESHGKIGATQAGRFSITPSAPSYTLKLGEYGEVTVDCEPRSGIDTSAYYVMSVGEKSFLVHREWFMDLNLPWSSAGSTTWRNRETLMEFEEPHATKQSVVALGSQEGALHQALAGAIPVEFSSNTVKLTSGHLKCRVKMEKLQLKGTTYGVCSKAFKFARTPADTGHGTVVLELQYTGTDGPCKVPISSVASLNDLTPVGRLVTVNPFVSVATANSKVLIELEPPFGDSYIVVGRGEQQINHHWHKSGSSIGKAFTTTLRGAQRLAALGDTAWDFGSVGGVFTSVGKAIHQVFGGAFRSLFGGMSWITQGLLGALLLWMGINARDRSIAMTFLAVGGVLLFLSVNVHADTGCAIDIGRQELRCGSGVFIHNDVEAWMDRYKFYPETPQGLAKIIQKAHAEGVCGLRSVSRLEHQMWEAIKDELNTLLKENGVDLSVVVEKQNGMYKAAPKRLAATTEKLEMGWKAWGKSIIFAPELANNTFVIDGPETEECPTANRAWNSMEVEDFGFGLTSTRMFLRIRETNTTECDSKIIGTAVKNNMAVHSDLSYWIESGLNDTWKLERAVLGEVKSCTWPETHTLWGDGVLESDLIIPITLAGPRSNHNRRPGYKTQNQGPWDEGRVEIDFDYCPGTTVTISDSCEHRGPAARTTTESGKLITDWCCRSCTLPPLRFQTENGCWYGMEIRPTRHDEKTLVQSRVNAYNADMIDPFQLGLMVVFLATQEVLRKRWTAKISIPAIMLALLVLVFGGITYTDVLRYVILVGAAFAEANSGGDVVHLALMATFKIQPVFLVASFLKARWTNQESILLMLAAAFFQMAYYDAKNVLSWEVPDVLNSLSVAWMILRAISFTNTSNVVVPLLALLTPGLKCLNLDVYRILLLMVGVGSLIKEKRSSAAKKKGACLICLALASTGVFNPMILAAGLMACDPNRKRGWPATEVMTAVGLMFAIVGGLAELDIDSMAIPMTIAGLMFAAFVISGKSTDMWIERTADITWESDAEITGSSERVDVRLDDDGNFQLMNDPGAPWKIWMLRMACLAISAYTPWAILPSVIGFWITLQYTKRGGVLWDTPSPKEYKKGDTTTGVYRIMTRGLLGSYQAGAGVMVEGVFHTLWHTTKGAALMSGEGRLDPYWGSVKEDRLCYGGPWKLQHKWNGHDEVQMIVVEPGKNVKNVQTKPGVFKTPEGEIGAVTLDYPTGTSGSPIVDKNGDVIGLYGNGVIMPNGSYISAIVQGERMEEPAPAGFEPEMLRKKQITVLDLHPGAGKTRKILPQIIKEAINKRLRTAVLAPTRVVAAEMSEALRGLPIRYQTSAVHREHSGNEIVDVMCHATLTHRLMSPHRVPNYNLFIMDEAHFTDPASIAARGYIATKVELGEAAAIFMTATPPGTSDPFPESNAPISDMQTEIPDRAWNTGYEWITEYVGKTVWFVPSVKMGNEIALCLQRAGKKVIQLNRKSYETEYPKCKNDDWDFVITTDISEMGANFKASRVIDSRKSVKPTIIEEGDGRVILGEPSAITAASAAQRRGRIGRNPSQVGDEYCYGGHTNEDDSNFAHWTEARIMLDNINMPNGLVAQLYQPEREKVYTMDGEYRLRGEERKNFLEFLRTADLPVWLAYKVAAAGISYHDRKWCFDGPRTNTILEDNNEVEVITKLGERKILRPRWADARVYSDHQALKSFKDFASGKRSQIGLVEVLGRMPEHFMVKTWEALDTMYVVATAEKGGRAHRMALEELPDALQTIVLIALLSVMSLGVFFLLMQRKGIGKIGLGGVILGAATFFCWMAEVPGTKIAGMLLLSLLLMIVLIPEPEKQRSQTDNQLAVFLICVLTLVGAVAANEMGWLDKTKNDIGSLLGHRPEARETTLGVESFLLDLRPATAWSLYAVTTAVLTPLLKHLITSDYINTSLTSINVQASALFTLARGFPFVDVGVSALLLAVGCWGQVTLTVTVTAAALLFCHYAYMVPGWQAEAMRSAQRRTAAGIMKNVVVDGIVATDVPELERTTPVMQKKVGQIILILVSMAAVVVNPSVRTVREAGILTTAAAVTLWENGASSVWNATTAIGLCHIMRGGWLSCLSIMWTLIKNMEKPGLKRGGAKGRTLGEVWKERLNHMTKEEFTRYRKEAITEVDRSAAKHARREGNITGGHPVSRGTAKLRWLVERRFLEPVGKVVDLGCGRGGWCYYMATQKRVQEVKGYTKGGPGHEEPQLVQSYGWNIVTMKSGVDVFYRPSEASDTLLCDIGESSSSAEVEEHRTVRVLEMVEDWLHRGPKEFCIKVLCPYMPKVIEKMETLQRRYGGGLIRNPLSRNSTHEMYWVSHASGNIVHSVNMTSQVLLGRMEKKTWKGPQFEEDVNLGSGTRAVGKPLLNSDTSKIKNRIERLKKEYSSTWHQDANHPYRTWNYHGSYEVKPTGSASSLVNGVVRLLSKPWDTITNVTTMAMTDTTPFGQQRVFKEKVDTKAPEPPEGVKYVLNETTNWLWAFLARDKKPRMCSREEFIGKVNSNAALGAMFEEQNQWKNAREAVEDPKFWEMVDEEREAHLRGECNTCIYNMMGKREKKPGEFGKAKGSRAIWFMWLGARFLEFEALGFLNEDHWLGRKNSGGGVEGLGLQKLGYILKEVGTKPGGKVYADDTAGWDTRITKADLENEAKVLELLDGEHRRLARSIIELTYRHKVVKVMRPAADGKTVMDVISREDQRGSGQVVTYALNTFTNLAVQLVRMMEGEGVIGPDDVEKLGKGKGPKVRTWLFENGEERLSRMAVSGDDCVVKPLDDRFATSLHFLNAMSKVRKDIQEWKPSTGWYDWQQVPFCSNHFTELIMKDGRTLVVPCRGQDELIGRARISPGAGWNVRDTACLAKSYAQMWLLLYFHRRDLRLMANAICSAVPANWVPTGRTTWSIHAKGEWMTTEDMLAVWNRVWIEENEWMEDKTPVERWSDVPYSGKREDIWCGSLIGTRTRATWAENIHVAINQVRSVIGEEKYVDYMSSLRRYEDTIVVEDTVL

In the case of `CN([C@@H](Cc1ccc(C(=N)N)cc1)C(=O)N[C@@H](CCCCN)C(=O)N[C@@H](C(N)=O)c1ccccc1)S(=O)(=O)c1ccccc1`, on Genome polyprotein [1], the IC50 worked out at 0.21 µM. Moreover, the inhibition in [2] stood at 19.6%; in [4], 48.7%; against Trypsin [6] it was 19.2%; in data set [9], 98.9%. In [3], the remaining at 2 h stood at 100%. The Stability entry (at Trypsin [5]; in data set [8]) was “Stable” each time. The half-maximal cytotoxic concentration (CC50) in data set [7] was more than 200 µM.
As to `CN([C@@H](Cc1ccc(C(=N)N)cc1)C(=O)N[C@@H](CCCCN)C(=O)N[C@@H](C(N)=O)c1ccc(OCc2ccc(Cl)c(Cl)c2)cc1)S(=O)(=O)c1ccccc1`, the IC50 was determined as 0.089 µM against Genome polyprotein [1] and 12.1 µM on Genome polyprotein [11]. Also, the values for the Ki on Genome polyprotein [10] and at Genome polyprotein [12] were 0.078 µM and 5.1 µM, respectively. The inhibition was 15.8% in data set [2], 84.8% in [4], 11% against Trypsin [6] and 98.6% in data set [9]. Further, half-maximal cytotoxicity in data set [7] (CC50) was put at 45.3 µM.
